Assay results taken from ChEMBL document CHEMBL1147779, “N-Hydroxyurea as zinc binding group in matrix metalloproteinase inhibition: mode of binding in a complex with MMP-8” (Bioorg Med Chem Lett, 2006).

What was measured:
[1] = molecular target: 72 kDa type IV collagenase (Homo sapiens, UniProt P08253); experiment: Inhibitory activity against MMP2
[2] = molecular target: T1, Stromelysin-1 (Homo sapiens, UniProt P08254); experiment: Inhibitory activity against MMP3
Target sequence in this assay (P08254 whole entry): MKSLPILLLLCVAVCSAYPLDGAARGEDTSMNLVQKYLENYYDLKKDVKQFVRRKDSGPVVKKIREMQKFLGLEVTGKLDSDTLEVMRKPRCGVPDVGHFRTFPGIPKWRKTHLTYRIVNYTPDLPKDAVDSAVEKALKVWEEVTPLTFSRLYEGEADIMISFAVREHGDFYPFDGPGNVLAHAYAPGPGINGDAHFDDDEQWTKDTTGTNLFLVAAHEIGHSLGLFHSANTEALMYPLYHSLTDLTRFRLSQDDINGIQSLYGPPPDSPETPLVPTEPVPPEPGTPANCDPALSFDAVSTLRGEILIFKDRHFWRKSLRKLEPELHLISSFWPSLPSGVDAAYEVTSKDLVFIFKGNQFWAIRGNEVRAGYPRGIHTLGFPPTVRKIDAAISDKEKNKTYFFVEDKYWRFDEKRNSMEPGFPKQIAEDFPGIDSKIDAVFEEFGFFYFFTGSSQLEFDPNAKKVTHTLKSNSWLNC

[3] = molecular target: Neutrophil collagenase (Homo sapiens, UniProt P22894); experiment: Inhibitory activity against MMP8
[4] = molecular target: T1, Stromelysin-1; experiment: Inhibitory activity against MMP3 at 120 uM
Target sequence in this assay (P08254 100-477 limits assumed): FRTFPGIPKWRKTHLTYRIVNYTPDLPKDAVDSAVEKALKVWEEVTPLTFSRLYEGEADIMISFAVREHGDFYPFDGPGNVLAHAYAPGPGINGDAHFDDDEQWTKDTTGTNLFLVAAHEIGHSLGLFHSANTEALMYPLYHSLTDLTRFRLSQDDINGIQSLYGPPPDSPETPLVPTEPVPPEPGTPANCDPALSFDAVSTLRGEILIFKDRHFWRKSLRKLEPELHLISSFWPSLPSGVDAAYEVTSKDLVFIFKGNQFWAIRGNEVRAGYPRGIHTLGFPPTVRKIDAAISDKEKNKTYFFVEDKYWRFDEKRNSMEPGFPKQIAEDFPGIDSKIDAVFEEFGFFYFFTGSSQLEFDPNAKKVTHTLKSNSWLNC

Sequence of Neutrophil collagenase (P22894 whole entry): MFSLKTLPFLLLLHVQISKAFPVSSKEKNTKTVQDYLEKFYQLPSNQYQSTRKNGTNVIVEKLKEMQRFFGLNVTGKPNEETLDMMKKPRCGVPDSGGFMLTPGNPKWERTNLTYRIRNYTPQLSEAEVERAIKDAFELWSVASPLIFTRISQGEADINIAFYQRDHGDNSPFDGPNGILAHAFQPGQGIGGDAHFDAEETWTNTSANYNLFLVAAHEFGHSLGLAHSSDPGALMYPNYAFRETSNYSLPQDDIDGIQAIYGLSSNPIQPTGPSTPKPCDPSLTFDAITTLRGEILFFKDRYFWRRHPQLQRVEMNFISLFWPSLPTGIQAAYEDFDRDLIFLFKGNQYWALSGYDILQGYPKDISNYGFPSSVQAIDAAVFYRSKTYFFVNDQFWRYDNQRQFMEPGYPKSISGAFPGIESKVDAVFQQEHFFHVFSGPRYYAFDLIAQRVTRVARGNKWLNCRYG
Sequence of 72 kDa type IV collagenase (P08253 whole entry): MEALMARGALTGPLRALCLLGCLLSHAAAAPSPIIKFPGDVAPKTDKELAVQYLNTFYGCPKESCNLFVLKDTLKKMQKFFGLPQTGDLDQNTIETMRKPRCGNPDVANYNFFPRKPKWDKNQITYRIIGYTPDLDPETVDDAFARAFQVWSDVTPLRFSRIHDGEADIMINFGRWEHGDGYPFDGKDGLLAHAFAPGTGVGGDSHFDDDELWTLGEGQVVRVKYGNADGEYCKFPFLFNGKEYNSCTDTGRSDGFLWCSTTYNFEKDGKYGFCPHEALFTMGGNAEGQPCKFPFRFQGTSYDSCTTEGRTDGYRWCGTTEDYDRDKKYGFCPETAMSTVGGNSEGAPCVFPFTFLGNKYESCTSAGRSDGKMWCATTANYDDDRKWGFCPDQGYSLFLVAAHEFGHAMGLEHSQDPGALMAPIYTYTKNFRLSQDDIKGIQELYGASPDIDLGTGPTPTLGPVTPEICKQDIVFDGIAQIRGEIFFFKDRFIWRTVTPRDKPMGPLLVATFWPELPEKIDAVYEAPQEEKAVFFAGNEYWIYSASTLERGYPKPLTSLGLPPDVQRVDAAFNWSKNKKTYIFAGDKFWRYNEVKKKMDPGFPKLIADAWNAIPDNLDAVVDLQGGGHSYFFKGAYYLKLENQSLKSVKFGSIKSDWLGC

Row | IC50 [1] | IC50 [2] | IC50 [3] | inhibition [4] | Compound
1 | 58 µM | 200 µM |  |  | CN(CCOc1ccc(-c2ccc(C#N)cc2)cc1)C(=O)NO
2 | > 380 µM | > 380 µM | > 380 µM |  | O=C(NO)NCCc1ccc(Oc2ccccc2)cc1
3 | 685 µM | 380 µM | 1000 µM |  | CN(CCc1ccc(Oc2ccccc2)cc1)C(=O)NO
4 | > 120 µM |  | > 120 µM | 22% | N#Cc1ccc(-c2ccc(OCCNC(=O)NO)cc2)cc1
